# Results as given in the supplement of paper PMC10307832.
# How the values were obtained:
# Experiment in all cases: relative viability (nuclei count vs DMSO), 5 days (fraction); higher = more cells survive
# [1] = compound: C1COCCN1C2=NC(=NC3=C2OC4=C3C=CC=N4)C5=CC(=CC=C5)NC(=O)C6=CN=C(C=C6)N + Nc1nc2[nH]cc(CCc3ccc(C(=O)N[C@@H](CCC(=O)O)C(=O)O)cc3)c2c(=O)[nH]1 [Pemetrexed] (partner 0.2 µM)
# Outline: (§1)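 Values are medians from duplicate plates. Each reflects relative viability, defined as the nuclei count of treated wells over that of vehicle wells. Lung cancer cell lines in 1536-well plates were pin-tool dosed one day after seeding with one drug alone or with a fixed anchor-drug dose plus five library-drug doses (not always all listed) in √10 steps, then fixed, stained and imaged at 4× after 5 days.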
# SGI-1776 + AZD7762 = compound: CN1CCC(CNc2ccc3ncc(-c4cccc(OC(F)(F)F)c4)n3n2)CC1 [SGI-1776] + NC(=O)Nc1cc(-c2cccc(F)c2)sc1C(=O)N[C@H]1CCCNC1 [AZD7762] (partner 0.2 µM)
# Outline: as §1
# Entinostat + Foretinib = compound: Nc1ccccc1NC(=O)c1ccc(CNC(=O)OCc2cccnc2)cc1 [Entinostat] + COc1cc2c(Oc3ccc(NC(=O)C4(C(=O)Nc5ccc(F)cc5)CC4)cc3F)ccnc2cc1OCCCN1CCOCC1 [Foretinib] (partner 0.25 µM)
# Outline: as §1
# Entinostat + Dasatinib = compound: Nc1ccccc1NC(=O)c1ccc(CNC(=O)OCc2cccnc2)cc1 [Entinostat] + Cc1nc(Nc2ncc(C(=O)Nc3c(C)cccc3Cl)s2)cc(N2CCN(CCO)CC2)n1 [Dasatinib] (partner 0.075 µM)
# Outline: as §1
Cell Line,relative viability ([1]; first compound 0.02 µM),relative viability ([1]; first compound 0.06325 µM),relative viability ([1]; first compound 0.2 µM),relative viability ([1]; first compound 0.6325 µM),relative viability ([1]; first compound 2 µM),relative viability (SGI-1776 + AZD7762; first compound 0.08 µM),relative viability (SGI-1776 + AZD7762; first compound 0.8 µM),relative viability (SGI-1776 + AZD7762; first compound 2.53 µM),relative viability (SGI-1776 + AZD7762; first compound 8 µM),relative viability (Entinostat + Foretinib; first compound 0.02 µM),relative viability (Entinostat + Foretinib; first compound 0.06325 µM),relative viability (Entinostat + Foretinib; first compound 0.2 µM),relative viability (Entinostat + Foretinib; first compound 0.6325 µM),relative viability (Entinostat + Foretinib; first compound 2 µM),relative viability (Entinostat + Dasatinib; first compound 0.02 µM),relative viability (Entinostat + Dasatinib; first compound 0.06325 µM),relative viability (Entinostat + Dasatinib; first compound 0.2 µM),relative viability (Entinostat + Dasatinib; first compound 0.6325 µM),relative viability (Entinostat + Dasatinib; first compound 2 µM)
NCI-H1755,0.447,0.431,0.465,0.388,0.362,0.459,0.575,0.463,0.378,0.901,0.864,0.805,0.713,0.421,0.431,0.503,0.445,0.28,0.218
NCI-H596,0.569,0.488,0.523,0.467,0.393,1.17,1.15,0.984,0.897,0.851,0.727,0.913,0.698,0.655,0.627,0.593,0.576,0.448,0.378
NCI-H1651,0.615,0.581,0.572,0.599,0.31,0.537,0.519,0.494,0.419,0.817,0.855,0.851,0.632,0.394,0.447,0.527,0.402,0.338,0.192
NCI-H1437,0.339,0.311,0.308,0.366,0.254,1.11,1.13,1.07,1.02,0.992,0.804,0.456,0.352,0.261,0.434,0.423,0.188,0.137,0.126
NCI-H1975,0.327,0.296,0.293,0.292,0.23,0.749,0.745,0.631,0.43,0.904,0.78,0.64,0.326,0.224,0.352,0.307,0.316,0.199,0.134
BEN,0.737,0.795,0.584,0.693,0.665,0.829,0.735,0.673,0.524,0.782,0.756,0.465,0.498,0.283,0.318,0.341,0.308,0.264,0.179
NCI-H322M,0.685,0.588,0.565,0.628,0.621,0.631,0.568,0.524,0.646,0.978,1.16,1.15,0.993,0.854,0.271,0.274,0.275,0.298,0.313
HOP-62,0.298,0.3,0.301,0.29,0.162,0.84,0.574,0.613,0.646,1.11,0.983,0.995,0.609,0.356,0.718,0.682,0.588,0.29,0.161
